Results as given in the supplement of paper PMC10307832.

Tests used:
Experiment in all cases: relative viability (nuclei count vs DMSO), 5 days (fraction); higher = more cells survive
[1] = compound: C[C@@]1(C(=O)Nc2ccc(F)nc2)CCCN1c1nc(Nc2cc(C3CC3)n[nH]2)c2cccn2n1 + N=C(N)NC(=N)NCCc1ccccc1 [Phenformin] (partner 250 µM)
Outline: (§1)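 Each reported value is a median over duplicate plates. It expresses relative viability: treated-well nuclei count divided by vehicle-well nuclei count. Lung cancer cell lines in 1536-well plates were dosed by pin tool a day after seeding, alone with one drug or with a fixed anchor-drug dose plus five library-drug doses (not always all listed) in √10 steps, and nuclei were counted after 5 days.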

Motesanib + Pictilisib = compound: CC1(C)CNc2cc(NC(=O)c3cccnc3NCc3ccncc3)ccc21 [Motesanib] + CS(=O)(=O)N1CCN(Cc2cc3nc(-c4cccc5[nH]ncc45)nc(N4CCOCC4)c3s2)CC1 [Pictilisib] (partner 1 µM)
Outline: as §1

Motesanib + Trametinib = compound: CC1(C)CNc2cc(NC(=O)c3cccnc3NCc3ccncc3)ccc21 [Motesanib] + CC(=O)Nc1cccc(-n2c(=O)n(C3CC3)c(=O)c3c(Nc4ccc(I)cc4F)n(C)c(=O)c(C)c32)c1 [Trametinib] (partner 0.02 µM)
Outline: as §1

Motesanib + AZD7762 = compound: CC1(C)CNc2cc(NC(=O)c3cccnc3NCc3ccncc3)ccc21 [Motesanib] + NC(=O)Nc1cc(-c2cccc(F)c2)sc1C(=O)N[C@H]1CCCNC1 [AZD7762] (partner 0.2 µM)
Outline: as §1

| Cell Line | relative viability ([1]; first compound 0.04 µM) | relative viability ([1]; first compound 0.1265 µM) | relative viability ([1]; first compound 0.4 µM) | relative viability ([1]; first compound 1.265 µM) | relative viability (Motesanib + Pictilisib; first compound 0.01 µM) | relative viability (Motesanib + Pictilisib; first compound 0.03162 µM) | relative viability (Motesanib + Pictilisib; first compound 0.1 µM) | relative viability (Motesanib + Pictilisib; first compound 0.3162 µM) | relative viability (Motesanib + Pictilisib; first compound 1 µM) | relative viability (Motesanib + Trametinib; first compound 0.01 µM) | relative viability (Motesanib + Trametinib; first compound 0.03162 µM) | relative viability (Motesanib + Trametinib; first compound 0.1 µM) | relative viability (Motesanib + Trametinib; first compound 0.3162 µM) | relative viability (Motesanib + Trametinib; first compound 1 µM) | relative viability (Motesanib + AZD7762; first compound 0.01 µM) | relative viability (Motesanib + AZD7762; first compound 0.03162 µM) | relative viability (Motesanib + AZD7762; first compound 0.1 µM) | relative viability (Motesanib + AZD7762; first compound 0.3162 µM) | relative viability (Motesanib + AZD7762; first compound 1 µM) |
| --- | --- | --- | --- | --- | --- | --- | --- | --- | --- | --- | --- | --- | --- | --- | --- | --- | --- | --- | --- |
| LOU-NH91 | 0.673 | 0.646 | 0.596 | 0.608 | 0.466 | 0.523 | 0.563 | 0.547 | 0.568 | 0.789 | 0.767 | 0.819 | 0.802 | 0.781 | 0.746 | 0.732 | 0.782 | 0.789 | 0.779 |
| NCI-H2405 | 0.351 | 0.273 | 0.226 | 0.276 |  | 0.393 | 0.433 | 0.425 | 0.434 | 0.53 | 0.603 | 0.625 | 0.684 | 0.704 | 0.629 | 0.632 | 0.691 | 0.812 | 0.765 |
| LCLC-97TM1 | 0.333 | 0.133 | 0.129 | 0.12 | 0.224 | 0.204 | 0.15 | 0.235 | 0.18 | 0.152 | 0.202 | 0.198 | 0.226 | 0.195 |  | 0.328 | 0.241 | 0.238 | 0.256 |
| NCI-H596 | 0.649 | 0.69 | 0.738 | 0.763 | 0.391 | 0.427 | 0.362 | 0.384 | 0.406 | 0.68 | 0.918 | 0.761 | 0.798 | 0.958 | 0.973 | 0.825 | 1.09 | 1.01 | 1.13 |
| NCI-H727 | 0.402 | 0.247 | 0.266 | 0.322 | 0.324 | 0.369 | 0.463 | 0.464 | 0.379 | 0.381 | 0.363 | 0.385 | 0.379 | 0.354 | 0.547 | 0.56 | 0.856 | 0.488 | 0.58 |
| H3255 | 0.298 | 0.372 | 0.346 | 0.332 | 0.473 | 0.487 | 0.491 | 0.488 | 0.427 | 0.533 | 0.681 | 0.684 | 0.626 | 0.67 | 0.846 | 0.986 | 0.884 | 0.816 | 0.909 |
| NCI-H1437 | 0.257 | 0.253 | 0.214 | 0.171 | 0.441 | 0.441 | 0.467 | 0.502 | 0.406 | 0.587 | 0.471 | 0.529 | 0.492 | 0.518 | 1.05 | 1.08 | 1.15 | 1.11 | 1.11 |
| LU99A | 0.773 | 0.621 | 0.586 | 0.52 | 0.348 | 0.327 | 0.309 | 0.386 | 0.352 | 0.302 | 0.596 | 0.548 | 0.539 | 0.583 | 0.39 | 0.361 | 0.382 | 0.399 | 0.355 |
| HCC-827 | 0.431 | 0.402 | 0.371 | 0.443 | 1.12 | 1.13 | 0.866 | 1.01 | 1.04 | 0.442 | 0.593 | 0.505 | 0.541 | 0.623 | 0.216 | 0.29 | 0.196 | 0.213 | 0.175 |
| LK-2 | 0.251 | 0.178 | 0.166 | 0.202 | 0.576 | 0.513 | 0.555 | 0.621 | 0.537 | 0.662 | 0.71 | 0.696 | 0.87 | 0.811 | 0.364 | 0.337 | 0.281 | 0.497 | 0.371 |
